# Assay results reported in patent US9580430B2, “9H-pyrimido[4,5-B]indoles and related analogs as BET bromodomain inhibitors” (THE REGENTS OF THE UNIVERSITY OF MICHIGAN, priority 2014, dated 2017).
# Tests used:
# [1] = biological target: T1, recombinant BRD4 BD1 (Homo sapiens, UniProt O60885); assay: Competitive fluorescence-polarization (FP) binding assay, BRD4 BD1; settings: competitive FP assay; protein 10 nM, probe […]; read-out: IC50 (nM) BRD4 BD1; further: probe 1.5 nM
# T1 construct: for recombinant BRD4 BD1 and BRD4 BD2 proteins
# How it was run: (§1)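 FP competition with FAM-labelled probe (ZBA248 or BRD-1F) against preincubated protein/probe complex; BD1 at 10 nM and BD2 at 6 nM final, in 100 mM potassium phosphate pH 6.5, 0.01% Triton X-100. 30 min, room temperature. IC50 by nonlinear regression; Ki also derived, using probe Kd from protein saturation.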
# [2] = biological target: T2, recombinant BRD4 BD2 (Homo sapiens, UniProt O60885); assay: Competitive fluorescence-polarization (FP) binding assay, BRD4 BD2; settings: competitive FP assay; protein 6 nM, probe […]; read-out: IC50 (nM) BRD4 BD2; further: probe 1.5 nM
# T2 construct: for recombinant BRD4 BD1 and BRD4 BD2 proteins
# How it was run: as §1
# [3] = test system: MOLM-13; assay: Cell growth inhibition, MOLM-13 leukemia cells (CellTiter-Glo); assay type: cell-based; settings: Homo sapiens, MOLM-13, 96 h; 4 days; read-out: IC50 (nM) MOLM-13 Cell Line (CellTiter-Glo assay)
# How it was run: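 MOLM-13 leukemia cells treated with compounds; viability read by CellTiter-Glo luminescence after 10-20 min reagent incubation at room temperature. IC50 derived from luminescent signal.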
# [4] = test system: MDA-MB-436; assay: Cell growth inhibition, MDA-MB-436 breast cancer cells (WST-8); assay type: cell-based; settings: Homo sapiens, MDA-MB-436, 96 h; 4 days; read-out: IC50 (nM) MDA-MB-436 Cell Line (WST assay)
# How it was run: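 IC50 was computed from WST-8-based cell counting in MDA-MB-436 cells, with absorbance read at 450 nm.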
IC50 [1] [nM],IC50 [2] [nM],IC50 [3] [nM],IC50 [4] [nM],SMILES
14.3,23,63.3,93.9,"CCc1nn(C)c(Nc2nc(C)nc3[nH]c4cc(-c5c(C)noc5C)c(OC)cc4c23)c1C [Cpd. No. 169, 7-(3,5-dimethylisoxazol-4-yl)-N-(3-ethyl-1,4-dimethyl-1H-pyrazol-5-yl)-6-methoxy-2-methyl-9H-pyrimido[4,5-b]indol-4-amine]"
31.7,25.1,121,198,"CCn1nccc1Nc1nc(C)nc2[nH]c3cc(-c4c(C)noc4C)c(OC)cc3c12 [Cpd. No. 173, 7-(3,5-dimethylisoxazol-4-yl)-N-(1-ethyl-1H-pyrazol-5-yl)-6-methoxy-2-methyl-9H-pyrimido[4,5-b]indol-4-amine]"
9,5.5,11,23,"COc1cc2c(cc1-c1c(C)noc1C)[nH]c1nc(C)nc(Nc3cc(C4(C)CC4)nn3C)c12 [Cpd. No. 251, 7-(3,5-dimethylisoxazol-4-yl)-6-methoxy-2-methyl-N-(1-methyl-3-(1-methylcyclopropyl)-1H-pyrazol-5-yl)-9H-pyrimido[4,5-b]indol-4-amine]"
69,38,101,222,"COc1cc2c(cc1-c1c(C)noc1C)[nH]c1nc(C)nc(Nc3ccc4cc[nH]c4c3)c12 [Cpd. No. 233, 7-(3,5-dimethylisoxazol-4-yl)-N-(1H-indol-6-yl)-6-methoxy-2-methyl-9H-pyrimido[4,5-b]indol-4-amine]"
10.5,8.5,12,26,"COc1cc2c(cc1-c1c(C)noc1C)[nH]c1ccnc(Nc3cc(C4CC4)nn3C)c12 [Cpd. No. 255, N-(3-cyclopropyl-1-methyl-1H-pyrazol-5-yl)-7-(3,5-dimethylisoxazol-4-yl)-8-methoxy-5H-pyrido[4,3-b]indol-1-amine]"
59.9,93.7,201,319,"COc1cc2c(cc1-c1c(C)noc1C)[nH]c1nc(C)nc(Nc3c(C)c(C4CC4)nn3C)c12 [Cpd. No. 147, N-(3-Cyclopropyl-1,4-dimethyl-1H-pyrazol-5-yl)-7-(3,5-dimethylisoxazol-4-yl)-6-methoxy-2-methyl-9H-pyrimido[4,5-b]indol-4-amine]"
4.2,1.2,5.7,30.3,"COc1cc2c(cc1-c1c(C)noc1C)[nH]c1nc(C)nc(Nc3c4c(nn3C(C)C)CCCC4)c12 [Cpd. No. 138, 7-(3,5-Dimethylisoxazol-4-yl)-N-(2-isopropyl-4,5,6,7-tetrahydro-2H-indazol-3-yl)-6-methoxy-2-methyl-9H-pyrimido[4,5-b]indol-4-amine]"
13.7,10.3,52.9,83.3,"CCn1ncc(C)c1Nc1nc(C)nc2[nH]c3cc(-c4c(C)noc4C)c(OC)cc3c12 [Cpd. No. 176, 7-(3,5-dimethylisoxazol-4-yl)-N-(1-ethyl-4-methyl-1H-pyrazol-5-yl)-6-methoxy-2-methyl-9H-pyrimido[4,5-b]indol-4-amine]"
19,28,22,43,"COc1cc2c(cc1-c1c(C)noc1C)[nH]c1nc(C)nc(Nc3c(C4CC4)nn(C)c3C3CC3)c12 [Cpd. No. 239, N-(3,5-dicyclopropyl-1-methyl-1H-pyrazol-4-yl)-7-(3,5-dimethylisoxazol-4-yl)-6-methoxy-2-methyl-9H-pyrimido[4,5-b]indol-4-amine]"
49,57,189,209,"COc1cc2c(cc1-c1c(C)noc1C)[nH]c1nc(C)nc(Nc3cccc4cnccc34)c12 [Cpd. No. 221, 7-(3,5-dimethylisoxazol-4-yl)-N-(isoquinolin-5-yl)-6-methoxy-2-methyl-9H-pyrimido[4,5-b]indol-4-amine]"
13.3,14.5,30.5,67.9,"CCn1cc(Nc2nc(C)nc3[nH]c4cc(-c5c(C)noc5C)c(OC)cc4c23)c(C(C)C)n1 [Cpd. No. 199, 7-(3,5-dimethylisoxazol-4-yl)-N-(1-ethyl-3-isopropyl-1H-pyrazol-4-yl)-6-methoxy-2-methyl-9H-pyrimido[4,5-b]indol-4-amine]"
365,198,56.3,142,"COc1cc2c(cc1-c1c(C)noc1C)[nH]c1nc(C)nc(Nc3cc(C)nn3-c3cccc(Cl)c3)c12 [Cpd. No. 7, N-(1-(3-Chlorophenyl)-3-methyl-1H-pyrazol-5-yl)-7-(3,5-dimethylisoxazol-4-yl)-6-methoxy-2-methyl-9H-pyrimido[4,5-b]indol-4-amine]"
12,14,21,67,"CCn1nc(C2CC2)c(F)c1Nc1nc(C)nc2[nH]c3cc(-c4c(C)noc4C)c(OC)cc3c12 [Cpd. No. 250, N-(3-cyclopropyl-1-ethyl-4-fluoro-1H-pyrazol-5-yl)-7-(3,5-dimethylisoxazol-4-yl)-6-methoxy-2-methyl-9H-pyrimido[4,5-b]indol-4-amine]"
16.3,16.5,49.2,110,"COc1cc2c(cc1-c1c(C)noc1C)[nH]c1nc(C)nc(Nc3cnn4c3CCCC4)c12 [Cpd. No. 139, 7-(3,5-Dimethylisoxazol-4-yl)-6-methoxy-2-methyl-N-(4,5,6,7-tetrahydropyrazolo[1,5-a]pyridin-3-yl)-9H-pyrimido[4,5-b]indol-4-amine]"
16.7,82.3,28.4,51,"COc1cc2c(cc1-c1c(C)noc1C)[nH]c1ncnc(Nc3nn(C)c4ccccc34)c12 [Cpd. No. 17, 7-(3,5-Dimethylisoxazol-4-yl)-6-methoxy-N-(1-methyl-1H-indazol-3-yl)-9H-pyrimido[4,5-b]indol-4-amine]"
52.9,21.7,69.3,249,"COc1cc2c(cc1-c1c(C)noc1C)[nH]c1nc(C)nc(Nc3c(-c4ccccc4)nn(C(C)C)c3C)c12 [Cpd. No. 4, 7-(3,5-Dimethylisoxazol-4-yl)-N-(1-isopropyl-5-methyl-3-phenyl-1H-pyrazol-4-yl)-6-methoxy-2-methyl-9H-pyrimido[4,5-b]indol-4-amine]"
7.9,13.2,78.6,110,"COc1cc2c(cc1-c1c(C)noc1C)[nH]c1nc(C)nc(Nc3sc(C)nc3C)c12 [Cpd. No. 177, N-(7-(3,5-dimethylisoxazol-4-yl)-6-methoxy-2-methyl-9H-pyrimido[4,5-b]indol-4-yl)-2,4-dimethylthiazol-5-amine]"
6.1,6.3,5,29.6,"COc1cc2c(cc1-c1c(C)noc1C)[nH]c1nc(C)nc(Nc3cc(C)nn3C(C)C)c12 [Cpd. No. 9, 7-(3,5-Dimethylisoxazol-4-yl)-N-(1-isopropyl-3-methyl-1H-pyrazol-5-yl)-6-methoxy-2-methyl-9H-pyrimido[4,5-b]indol-4-amine]"
35,44,28,79,"COc1cc2c(cc1-c1c(C)noc1C)[nH]c1nc(C)nc(Nc3cccc4c3CCN4)c12 [Cpd. No. 231, 7-(3,5-dimethylisoxazol-4-yl)-N-(indolin-4-yl)-6-methoxy-2-methyl-9H-pyrimido[4,5-b]indol-4-amine]"
47,55,115,152,"COc1cc2c(cc1-c1c(C)noc1C)[nH]c1nc(C)nc(Nc3cccc4ccncc34)c12 [Cpd. No. 223, 7-(3,5-dimethylisoxazol-4-yl)-N-(isoquinolin-8-yl)-6-methoxy-2-methyl-9H-pyrimido[4,5-b]indol-4-amine]"
10.5,6.9,26.6,63.2,"COc1cc2c(cc1-c1c(C)noc1C)[nH]c1nc(C)nc(Nc3cc(C4CCC4)nn3C)c12 [Cpd. No. 136, N-(3-Cyclobutyl-1-methyl-1H-pyrazol-5-yl)-7-(3,5-dimethylisoxazol-4-yl)-6-methoxy-2-methyl-9H-pyrimido[4,5-b]indol-4-amine]"
18,17,510,363,"COc1cc2c(cc1-c1c(C)noc1C)[nH]c1nc(C)nc(Nc3c[nH]c4ncccc34)c12 [Cpd. No. 102, 7-(3,5-dimethylisoxazol-4-yl)-6-methoxy-2-methyl-N-(1H-pyrrolo[2,3-b]pyridin-3-yl)-9H-pyrimido[4,5-b]indol-4-amine]"
16,29,33,76,"CCc1nn(CC)c(CC)c1Nc1nc(C)nc2[nH]c3cc(-c4c(C)noc4C)c(OC)cc3c12 [Cpd. No. 241, 7-(3,5-dimethylisoxazol-4-yl)-6-methoxy-2-methyl-N-(1,3,5-triethyl-1H-pyrazol-4-yl)-9H-pyrimido[4,5-b]indol-4-amine]"
